Assay results: paper PMC11220827 (Frontiers in Pharmacology, 2024)
Several values for one entry are separate records, joined by “and”; a condition that tells them apart may be missing. Equal entries are not always repeated.

Legend:
Estrogen ERα (h) = Estrogen ERα (h) (Homo sapiens, UniProt P03372); settings: pharmacology profiling; LOEC = 10% of maximum reference compound activity
ERα receptor = ERα receptor (Homo sapiens, UniProt P03372)
TRβ = biological target: T1, TRβ (Homo sapiens, UniProt P10828)
T1 sequence (P10828 1-461): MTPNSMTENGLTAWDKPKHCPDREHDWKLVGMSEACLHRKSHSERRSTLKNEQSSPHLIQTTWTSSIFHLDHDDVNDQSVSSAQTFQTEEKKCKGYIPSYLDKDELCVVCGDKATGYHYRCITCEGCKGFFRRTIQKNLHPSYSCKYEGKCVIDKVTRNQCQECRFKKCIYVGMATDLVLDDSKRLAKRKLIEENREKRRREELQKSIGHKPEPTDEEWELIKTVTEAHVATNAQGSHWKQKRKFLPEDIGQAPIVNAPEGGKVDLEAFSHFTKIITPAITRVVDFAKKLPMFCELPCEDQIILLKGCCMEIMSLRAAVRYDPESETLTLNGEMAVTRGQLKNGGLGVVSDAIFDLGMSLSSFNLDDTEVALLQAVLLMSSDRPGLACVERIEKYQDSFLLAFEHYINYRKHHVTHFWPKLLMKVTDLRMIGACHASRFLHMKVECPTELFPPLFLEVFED
Procedure: using the U2-OS based CALUX cytotox bioassay. The cytotoxicity of each test chemical was assessed using the U2-OS based cytotoxicity CALUX bioassay. Concentrations causing >20% reduction of luminescence were considered cytotoxic.
cytotoxicity (relative induction in the cytotoxicity CALUX bioassay > 80%) were used for final
evaluation of analysis results.
induction in the cytotox CALUX bioassay > 80%) were used for final evaluation of analysis results.
All analysis results were expressed in molar (M) final in well.
For determination of the (anti-)ERα, (anti-)AR and (anti-)TRβ CALUX activities, CALUX cells were
seeded in assay medium. Following exposure of the CALUX cells to serial dilutions of the
compounds in triplicate for 24 h, the induction of luciferase production was quantified by measuring
luminescence following addition of the substrate luciferin. For antagonist assays, a fixed
concentration of assay agonist was present in each well, to generate a basal signal. On each plate, a
complete calibration curve for each respective bioassay was also analysed using the relevant reference
compounds. For the analyses in the presence of rat liver S9, 0.03% (v/v) of PB/BNF induced rat liver
S9 mix (including NADPH and an NADPH-regenerating system) was added to the cells directly after
addition of the compounds, which remained there for the duration of the exposure period (24 h) (van
Relative light units (RLUs) of the CALUX assays were analysed as follows. For agonist assays,
background values (exposure to DMSO only) were subtracted, and the maximum activity of the
assay’s reference compound was set to 100%. For antagonist assays, the basal signal (exposure to fixed concentration of agonist only) was set to 100%. Activity of the samples was scaled accordingly,
resulting in expression of the data as “percentage of maximum reference response”. Graphs were
generated using the statistical software package GraphPad Prism V5.03. Using these graphs, lowest
effect concentrations (LOECs) and PC50 concentrations were determined; LOEC is defined as the […]

dogs = settings: male and female dogs; ref McClain et al. 2005; cited from earlier work

| SMILES | ERα LOEC (binding to receptor) (Estrogen ERα (h)) | LOEC, ERα CALUX assay (ERα receptor) [nM] | ERα receptor LOEC, +S9 (ERα receptor; +S9 (rat liver)) [Log M] | LOEC, ERα + S9 (ERα receptor; CALUX ERα, with rat liver S9) | LOEC, ERα − S9 (ERα receptor; CALUX ERα, without S9) [nM] | NOEC (in vitro PoD) = ERα CALUX LOEC divided by 3 (ERα receptor; estimated from LOEC + S9) [nM] | ERα receptor LOEC, −S9 (ERα receptor; −S9) [Log M] | Anti-TRß antithyroid LOEC, +S9 (TRβ; +S9 (rat liver)) [Log M] | Anti-TRß antithyroid LOEC, −S9 (TRβ; −S9) [Log M] | NOAEL, 4 weeks (dogs) [mg/kg/day] | NOAEL, 52 weeks (dogs) [mg/kg/day] |
| --- | --- | --- | --- | --- | --- | --- | --- | --- | --- | --- | --- |
| O=c1c(-c2ccc(O)cc2)coc2cc(O)ccc12 [Daidzein, DAIDZEIN] | 35 nM and 35.2 nM | 110 ± 18 | −7.0 | 100 ± 0.0 nM and 100 ± 0 nM and 100 nM | 110 | 33 | −6.9 |  |  |  |  |
| O=c1c(-c2ccc(O)cc2)coc2cc(O)cc(O)c12 [Genistein, 5,7-DIHYDROXY-3-(4-HYDROXYPHENYL)-4-BENZOPYRONE] |  |  |  |  |  |  |  | >−5 | >−5 | > 500 | > 500 |
